# Source: paper PMC3690454, “14-3-3 Proteins Interact with a Hybrid Prenyl-Phosphorylation Motif to Inhibit G Proteins” (Cell, 2013)
# Square brackets hold non-standard residues; d marks the D form. Ends that are not written are not given here. Peptide text beside a SMILES is read from it. * marks the point of attachment. Geranylgeranyl = CC(C)=CCC/C(C)=C/CC/C(C)=C/CC/C(C)=C/C*; Biotin = O=C1N[C@H]2[C@H](CS[C@H]2CCCCC(=O)*)N1; Farnesyl = CC(C)=CCC/C(C)=C/CC/C(C)=C/C*; pT = C[C@@H](OP(=O)(O)O)[C@H](N)C(=O)O; pS = N[C@@H](COP(=O)(O)O)C(=O)O; X1 = CC(C)=CCC/C(C)=C/C*; Ahx = NCCCCCC(=O)O; Prenyl = CC(C)=CC*
# T1: 14-3-3ζ (Homo sapiens, UniProt P63104)
# T1 construct: hexa-His; made in house; host or cells: E. coli BL21(DE3) Star
# T1 sequence (P63104 1-245): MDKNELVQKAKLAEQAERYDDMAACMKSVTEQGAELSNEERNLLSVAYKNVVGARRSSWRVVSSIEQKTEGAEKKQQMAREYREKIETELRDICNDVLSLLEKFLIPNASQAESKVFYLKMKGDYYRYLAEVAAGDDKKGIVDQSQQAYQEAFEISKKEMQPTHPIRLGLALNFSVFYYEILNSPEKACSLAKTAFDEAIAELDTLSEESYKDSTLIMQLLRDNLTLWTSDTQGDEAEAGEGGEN
# T2: 14-3-3δ (Homo sapiens, UniProt P63104)
# T2 construct: hexa-His; made in house; host or cells: E. coli BL21(DE3) Star
# T2 sequence (P63104 1-245): T1 sequence (P63104 1-245)
# T3: hexa-His-tagged 14-3-3ζ (UniProt P63104 1-245)
# T3 construct: 14-3-3 protein zeta; expressed and purified essentially as in Kostelecky et al., 2009; eluted as a dimer of ~60 kDa; the ITC methods call it 'the 14-3-3ζ domain'; source: E. coli BL21(DE3) Star, purified (HisTrap, size-exclusion chromatography)
# T3 sequence: T1 sequence (P63104 1-245)
# B1: Rap1A C-terminal peptide, phosphorylated and geranylgeranylated (N-Bio-Eahx-EKKKPKKKpSC(S-geranylgeranyl)-C) (peptide)
# peptide: {Biotin-Ahx}-EKKKPKKK[pS]C(Geranylgeranyl)
# notes: also called Rap1A+P+GG; source: synthetic peptide
# B2: RPGR C-terminal peptide, phosphorylated and geranylgeranylated (N-Bio-Eahx-TNTERRSKpSC(S-geranylgeranyl)-C) (peptide)
# peptide: {Biotin-Ahx}-TNTERRSK[pS]C(Geranylgeranyl)
# notes: also called RPRG; source: synthetic peptide
# How the values were obtained:
# [1] = target: T1, 14-3-3ζ; assay: Isothermal titration calorimetry of Rnd3 C-terminal peptides with 14-3-3ζ; type: binding; conditions: ITC
# Experimental: ITC measurements were carried out using a VP-ITC200 instrument (GE Healthcare). The 14-3-3ζ domain (see Extended Experimental Procedures) was used at 50–60 μM in ITC buffer (50 mM Tris [pH 7.5]), 100 mM NaCl, 1 mM TCEP). Rnd3 C-terminal peptides were solubilized in ITC buffer and used at 500–600 μM. Titrations were carried out at 25°C in triplicate. Each titration was fitted to a simple one-site binding model using the Origin software provided with the instrument. Titrations with nonbinding peptides were carried out at 15°C and 25°C.
# GST-14-3-3β protein was expressed as previously reported ([Yaffe et al., 1997]). A hexa-His-tagged version of 14-3-3ζ was expressed and purified essentially as previously reported ([Kostelecky et al., 2009]). In brief, the E. coli strain BL21(DE3) Star (Invitrogen) was transformed with the expression plasmid that was maintained by 34 μg/ml chloramphenicol. E. coli cells were grown to OD600nm of 0.7-0.8 in TB medium at 37°C and protein expression induced by 1 mM IPTG for 5 hr at 30°C. Pelleted cells were suspended in buffer A (25 mM Tris [pH 7.5], 100 mM NaCl, 1 mM EDTA, and 1 mM DTT) and disrupted by sonication. Insoluble material was cleared by high-speed centrifugation and the cleared lysate applied to a 5 ml HisTrap column using an AKTA system (GE Healthcare). The 14-3-3ζ protein was eluted with a linear gradient (0–500 mM) of Imidazole in buffer A. Finally, the protein was subjected to size-exclusion chromatography using a High-Load S200 pg column. As previously described, 14-3-3ζ eluted as a dimer with a molecular weight of ∼60 kDa. The final yield of 14-3-3ζ was 30–40 mg per liter of TB medium.
# [2] = target: T1, 14-3-3ζ; assay: Biolayer interferometry (Octet RED96), immobilised biotinylated peptides, 14-3-3ζ in solution; type: binding; conditions: for Kd: kinetic fit, peptide immobilised at 1 μg/ml, 25 mM Tris, 150 mM NaCl, 0.1% Tween-20, association 300 s, dissociation 300 s, NB = no binding; for Kd / koff / kon: typical experiment (n ≥ 3)
# Experimental: (§1) Biolayer interferometry was carried out using an Octet RED96 instrument (ForteBio). Biotinylated peptides were immobilized on streptavadin-coated biosensors (ForteBio) at a concentration of 1 μg/ml in BI buffer (25 mM Tris, 150 mM NaCl, 0.1% Tween-20), for 300 s. The immobilization typically reached a response level of 2 nm. Association and dissociation curves were obtained through addition of a dilution series of 14-3-3ζ ([…]) for 300 s followed by dissociation in BI buffer for 300 s using the Octet acquisition software. The binding data were fitted using the Octet analysis software.
# [3] = target: T2, 14-3-3δ; assay: Biolayer interferometry (Octet Red96) of candidate protein C-terminal peptides, Table S5; type: binding; conditions: for koff: typical experiment (n ≥ 3); for affinity for 14-3-3 (in words): compared with farnesylated or geranylgeranylated Rnd3 peptides
# Experimental: as §1
# Table S5. Interactions of C-Terminal Peptides from Candidate Proteins with 14-3-3, […]
# The affinities of the indicated phosphorylated and geranylgeranylated peptides for 14-3-3δ were determined by biolayer interferometry using an Octet Red96 instrument. Data of a typical experiment (n ≥ 3) along with statistics of the fit (χ2, R2) are shown. Peptide sequences from the C-terminus of the indicated proteins (last 10 amino acids of the mature protein sequence, terminating with Cys of CAAX box) are shown in single letter amino acid code, with pS/pT denoting phosphorylated serine/threonine. The modifications added to the C-terminal Cys are indicated. GG, geranylgeranylated; KD, dissociation constant; kon, association rate constant; koff, dissocation rate constant.
# [4] = target: hexa-His-tagged 14-3-3ζ (UniProt P63104); assay: ITC; VP-ITC200; 14-3-3ζ at 50–60 μM, Rnd3 peptides at 500–600 μM; 50 mM Tris pH 7.5, 100 mM NaCl, 1 mM TCEP; 25°C, one-site model; non-binding peptides at 15°C and 25°C
# [5] = target: T3, hexa-His-tagged 14-3-3ζ; assay: BLI; Octet RED96; biotinylated peptides immobilised on streptavidin-coated biosensors (1 μg/ml, 300 s); dilution series of 14-3-3ζ for 300 s, dissociation 300 s; BI buffer 25 mM Tris, 150 mM NaCl, 0.1% Tween-20; data of a typical experiment (n ≥ 3); conditions: both partners purified
molecule,measurement,setting,value
CC(C)=CCC/C(C)=C/CC/C(C)=C/CSC[C@H](NC(=O)[C@H](COP(=O)(O)O)NC(=O)[C@H](CCCCN)NC(=O)[C@H](C)NC(=O)[C@H](CCCCN)NC(=O)[C@H](CC(=O)O)NC(=O)[C@H](CCCCN)NC(=O)[C@H](CCCNC(=N)N)NC(=O)[C@H](CC(C)C)NC(=O)[C@@H](N)CC(=O)O)C(=O)O [+P+F] (H-DLRKDKAK[pS]C(Farnesyl)-OH),Kd,"[1]; 25°C, 50 mM Tris pH 7.5, 100 mM NaCl, 1 mM TCEP, one-site model, mean ± SD, n = 3",69 ± 25 nM
same,Kd,[2],32.4 nM
same,koff,[2],0.028 s⁻¹
same,kon,[2],860000 M⁻¹ s⁻¹
CC(C)=CCC/C(C)=C/CC/C(C)=C/CC/C(C)=C/CSC[C@H](NC(=O)[C@H](COP(=O)(O)O)NC(=O)[C@H](CCCCN)NC(=O)[C@H](C)NC(=O)[C@H](CCCCN)NC(=O)[C@H](CC(=O)O)NC(=O)[C@H](CCCCN)NC(=O)[C@H](CCCNC(=N)N)NC(=O)[C@H](CC(C)C)NC(=O)[C@H](CC(=O)O)NC(=O)CCCCCNC(=O)CCCC[C@@H]1SC[C@@H]2NC(=O)N[C@@H]21)C(=O)O [+P+GG] ({Biotin-Ahx}-DLRKDKAK[pS]C(Geranylgeranyl)-OH),Kd,[2],23.2 nM
same,koff,[2],0.021 s⁻¹
same,kon,[2],890000 M⁻¹ s⁻¹
CC(C)=CCC/C(C)=C/CSC[C@H](NC(=O)[C@H](COP(=O)(O)O)NC(=O)[C@H](CCCCN)NC(=O)[C@H](C)NC(=O)[C@H](CCCCN)NC(=O)[C@H](CC(=O)O)NC(=O)[C@H](CCCCN)NC(=O)[C@H](CCCNC(=N)N)NC(=O)[C@H](CC(C)C)NC(=O)[C@H](CC(=O)O)NC(=O)CCCCCNC(=O)CCCC[C@@H]1SC[C@@H]2NC(=O)N[C@@H]21)C(=O)O [+P+G] ({Biotin-Ahx}-DLRKDKAK[pS]C(X1)-OH),Kd,[2],56.5 nM
same,koff,[2],0.032 s⁻¹
same,kon,[2],570000 M⁻¹ s⁻¹
CC(C)=CCSC[C@H](NC(=O)[C@H](COP(=O)(O)O)NC(=O)[C@H](CCCCN)NC(=O)[C@H](C)NC(=O)[C@H](CCCCN)NC(=O)[C@H](CC(=O)O)NC(=O)[C@H](CCCCN)NC(=O)[C@H](CCCNC(=N)N)NC(=O)[C@H](CC(C)C)NC(=O)[C@H](CC(=O)O)NC(=O)CCCCCNC(=O)CCCC[C@@H]1SC[C@@H]2NC(=O)N[C@@H]21)C(=O)O [+P+Ipr] ({Biotin-Ahx}-DLRKDKAK[pS]C(Prenyl)-OH),"fold lower affinity for 14-3-3 compared to Rnd3 peptides with two, three and four isoprenyl groups",[2],approximately 10 fold
same,Kd,[2],556 nM
same,koff,[2],0.13 s⁻¹
same,kon,[2],240000 M⁻¹ s⁻¹
CC(C)=CCC/C(C)=C/CC/C(C)=C/CC/C(C)=C/CSC[C@H](NC(=O)[C@@H](NC(=O)[C@H](CCCCN)NC(=O)[C@H](CO)NC(=O)[C@H](CCCCN)NC(=O)[C@H](CCCCN)NC(=O)[C@H](CC(=O)O)NC(=O)[C@H](CC(=O)O)NC(=O)CNC(=O)CNC(=O)CCCCCNC(=O)CCCC[C@@H]1SC[C@@H]2NC(=O)N[C@@H]21)[C@@H](C)OP(=O)(O)O)C(=O)O [PDE6C] ({Biotin-Ahx}-GGDDKKSK[pT]C(Geranylgeranyl)-OH),koff,[3],0.018 s⁻¹
CC(C)=CCC/C(C)=C/CC/C(C)=C/CC/C(C)=C/CSC[C@H](NC(=O)[C@H](COP(=O)(O)O)NC(=O)[C@H](CCCCN)NC(=O)[C@H](CO)NC(=O)[C@H](CCCNC(=N)N)NC(=O)[C@H](CCCNC(=N)N)NC(=O)[C@H](CCC(=O)O)NC(=O)[C@@H](NC(=O)[C@H](CC(N)=O)NC(=O)[C@@H](NC(=O)CCCCCNC(=O)CCCC[C@@H]1SC[C@@H]2NC(=O)N[C@@H]21)[C@@H](C)O)[C@@H](C)O)C(=O)O [RPRG] ({Biotin-Ahx}-TNTERRSK[pS]C(Geranylgeranyl)-OH),affinity for 14-3-3 (in words),[3],intermediate affinity
same,koff,[3],0.022 s⁻¹
CC(C)=CCC/C(C)=C/CC/C(C)=C/CC/C(C)=C/CSC[C@H](NC(=O)[C@H](COP(=O)(O)O)NC(=O)[C@H](CO)NC(=O)[C@H](CCCCN)NC(=O)[C@H](CCCCN)NC(=O)[C@H](CCCNC(=N)N)NC(=O)[C@H](C)NC(=O)[C@H](CCCCN)NC(=O)CNC(=O)[C@@H]1CCCN1C(=O)CCCCCNC(=O)CCCC[C@@H]1SC[C@@H]2NC(=O)N[C@@H]21)C(=O)O [Rap1B] ({Biotin-Ahx}-PGKARKKS[pS]C(Geranylgeranyl)-OH),affinity for 14-3-3 (in words),[3],lower affinity
same,koff,[3],0.055 s⁻¹
CC[C@H](C)[C@H](NC(=O)[C@@H]1CCCN1C(=O)[C@@H](NC(=O)[C@@H]1CCCN1C(=O)CCCCCNC(=O)CCCC[C@@H]1SC[C@@H]2NC(=O)N[C@@H]21)[C@@H](C)O)C(=O)N[C@@H](CCCCN)C(=O)N[C@@H](CCCNC(=N)N)C(=O)NCC(=O)N[C@@H](CCCNC(=N)N)C(=O)N[C@@H](COP(=O)(O)O)C(=O)N[C@@H](CSC/C=C(\C)CC/C=C(\C)CC/C=C(\C)CCC=C(C)C)C(=O)O [RhoG] ({Biotin-Ahx}-PTPIKRGR[pS]C(Geranylgeranyl)-OH),affinity for 14-3-3 (in words),[3],lower affinity
same,koff,[3],0.035 s⁻¹
DLRKDKAKSC-OH [−P-F],binding to 14-3-3ζ (in words),[1]; tested at 15°C and 25°C,no binding
same,Kd,[2],> 4000 nM
Rap1A+P-GG: phosphorylated Rap1A peptide without the geranylgeranyl modification (EKKKPKKK[pS]C; not fully specified (N-terminus); also: biotinylated),affinity for 14-3-3ζ (in words),[2]; Figure 7C,micromolar affinity
"biotinylated Rnd3 C-terminal peptide, phosphorylated on S240 (+P−F)",dH,[4],-5.68 kcal/mol
same,stoichiometry N,[4],0.89
{Biotin-Ahx}-PGKARKKS[pS]C(Geranylgeranyl) (source: synthetic peptide),Kd,[5],170 nM
same,kon,[5],320000 M⁻¹ s⁻¹
B1,Kd,[5],23.6 nM
same,koff,[5],0.034 s⁻¹
same,kon,[5],1.4e+06 M⁻¹ s⁻¹
B2,Kd,[5],95 nM
same,koff,[5],0.022 s⁻¹
same,kon,[5],240000 M⁻¹ s⁻¹
{Biotin-Ahx}-PTPIKRGR[pS]C(Geranylgeranyl) (source: synthetic peptide),Kd,[5],868 nM
same,kon,[5],41000 M⁻¹ s⁻¹
{Biotin-Ahx}-GGDDKKSK[pT]C(Geranylgeranyl) (source: synthetic peptide),Kd,[5],44.5 nM
same,kon,[5],410000 M⁻¹ s⁻¹
